Source: patent USRE39591E1, “6-O-substituted ketolides having antibacterial activity” (Abbott Laboratories, priority 1996, dated 2007)
≈ marks a conversion by molar mass, not a printed value.

Test system: up to 32 different microorganisms
Assay: in vitro antibacterial activity (MIC), agar dilution on Brain Heart Infusion (BHI) agar with Steers replicator
Assay type: cell-based
Conditions: unit assumed
Procedure: Representative compounds of the present invention were assayed in vitro for antibacterial activity as follows: Twelve petri dishes containing successive aqueous dilutions of the test compound mixed with 10 mL of sterilized Brain Heart Infusion (BHI) agar (Difco 0148-01-5) were prepared. Each plate was inoculated with 1:100 (or 1:10 for slow-growing strains, such as Micrococcus and Streptococcus) dilutions of up to 32 different microorganisms, using a Steers replicator block. The inoculated plates were incubated at 35°-37° C. for 20 to 24 hours. In addition, a control plate, using BHI agar containing no test compound, was prepared and incubated at the beginning and end of each test.
An additional plate containing a compound having known susceptibility patterns for the organisms being tested and belonging to the same antibiotic class as the test compound was also prepared and incubated as a further control, as well as to provide test-to-test comparability. Erythromycin A was used for this purpose.
After incubation, each plate was visually inspected. The minimum inhibitory concentration (MIC) was defined as the lowest concentration of drug yielding no growth, a slight haze, or sparsely isolated colonies on the inoculum spot as compared to the growth control.

[1] = Candida albicans CCH 442 (code TT)
[2] = Enterococcus faecism ATCC 8043 (code II)
[3] = Escherichia coli DC-2 (code SS)
[4] = Escherichia coli JUHL (code QQ)
[5] = Micrococcus luteus ATCC 4698 (code PP)
[6] = Micrococcus luteus ATCC 9341 (code OO)
[7] = Mycobacterium smegmatis ATCC 114 (code UU)
[8] = Nocardia Asteroides ATCC9970 (code VV)
[9] = Staphylococcus aureus 1775 (code GG)
[10] = Staphylococcus aureus A-5278 (code CC)
[11] = Staphylococcus aureus ATCC 6538P (code AA)
[12] = Staphylococcus aureus CMX 553 (code FF)
[13] = Staphylococcus aureus CMX 642A (code DD)
[14] = Staphylococcus aureus NCTC10649M (code EE)
[15] = Staphylococcus epidermidis 3519 (code HH)
[16] = Streptococcus agalactiae CMX 508 (code KK)
[17] = Streptococcus bovis A-5169 (code JJ)
[18] = Streptococcus pyogenes 930 (code MM)
[19] = Streptococcus pyogenes EES61 (code LL)
[20] = Streptococcus pyogenes PIU 2548 (code NN)
[21] = Staphylococcus aureus A5177 (code BB)

CC[C@H]1OC(=O)[C@H](C)C(=O)[C@H](C)[C@@H](O[C@@H]2O[C@H](C)C[C@H](N(C)C)[C@H]2O)[C@@](C)(OCC=O)C[C@@H](C)C(=O)[C@H](C)[C@H]2NC(=O)O[C@@]21C [Example 220, Compound of Formula (IX): L is CO, T is NH, R is —CH2C(O)H]
MIC (organism code AA): 0.2 µg/mL
MIC (organism code BB): 0.39 µg/mL
MIC (organism code CC): > 100 µg/mL
MIC (organism code DD): 0.2 µg/mL
MIC (organism code EE): 0.2 µg/mL
MIC (organism code FF): 0.2 µg/mL
MIC (organism code GG): > 100 µg/mL
MIC (organism code HH): 0.2 µg/mL
MIC (organism code II): 0.05 µg/mL
MIC (organism code JJ): ≤ 0.005 µg/mL
MIC (organism code KK): 0.02 µg/mL
MIC (organism code LL): 0.01 µg/mL
MIC (organism code MM): > 100 µg/mL
MIC (organism code NN): 0.39 µg/mL
MIC (organism code OO): 0.02 µg/mL
MIC (organism code PP): 0.2 µg/mL
MIC (organism code QQ): 12.5 µg/mL
MIC (organism code RR): 0.1 µg/mL
MIC (organism code SS): 12.5 µg/mL
MIC (organism code TT): > 100 µg/mL
MIC (organism code UU): 3.1 µg/mL
MIC (organism code VV): 0.2 µg/mL
MIC (organism code WW): 2 µg/mL
MIC (organism code XX): 0.03 µg/mL
MIC (organism code YY): 0.06 µg/mL
MIC (organism code ZZ): > 128 µg/mL
MIC (organism code ZZA): 2 µg/mL

CCC1OC(=O)C(C)C(=O)C(C)C(OC2OC(C)CC(N(C)C)C2O)C(C)(OCC=Cc2cccc3ncccc23)CC(C)C(=O)C(C)C2NC(=O)OC12C (stereo not shown) [Example 196, R is —CH2CH═CH-(5-quinolyl)]
MIC [1]: > 100 µg/mL
MIC [2]: 0.05 µg/mL (≈ 0.0653 µM)
MIC [3]: > 100 µg/mL
MIC [4]: > 100 µg/mL
MIC (Escherichia coli SS (code RR)): 0.39 µg/mL (≈ 0.509 µM)
MIC [5]: 0.1 µg/mL (≈ 0.131 µM)
MIC [6]: 0.01 µg/mL (≈ 0.0131 µM)
MIC [7]: 0.2 µg/mL (≈ 0.261 µM)
MIC [8]: 0.1 µg/mL (≈ 0.131 µM)
MIC [9]: > 100 µg/mL
MIC [10]: > 100 µg/mL
MIC [11]: 0.1 µg/mL (≈ 0.131 µM)
MIC [12]: 0.1 µg/mL (≈ 0.131 µM)
MIC [13]: 0.1 µg/mL (≈ 0.131 µM)
MIC [14]: 0.1 µg/mL (≈ 0.131 µM)
MIC [15]: 0.2 µg/mL (≈ 0.261 µM)
MIC [16]: ≤ 0.005 µg/mL
MIC [17]: ≤ 0.005 µg/mL
MIC [18]: > 100 µg/mL
MIC [19]: ≤ 0.005 µg/mL
MIC [20]: 0.2 µg/mL (≈ 0.261 µM)

CC[C@H]1OC(=O)[C@H](C)C(=O)[C@H](C)[C@@H](O[C@@H]2O[C@H](C)C[C@H](N(C)C)[C@H]2O)[C@@](C)(OCC#Cc2ccc3ncccc3c2)C[C@@H](C)C(=O)[C@H](C)[C@H]2NC(=O)O[C@@]21C [Example 254, Compound of Formula (IX): L is CO, T is NH, R is —CH2—C≡C-(6-quinolyl)]
MIC (organism code AA): 0.1 µg/mL
MIC (organism code BB): 0.1 µg/mL
MIC (organism code CC): > 100 µg/mL
MIC (organism code DD): 0.1 µg/mL
MIC (organism code EE): 0.1 µg/mL
MIC (organism code FF): 0.1 µg/mL
MIC (organism code GG): > 100 µg/mL
MIC (organism code HH): 0.1 µg/mL
MIC (organism code II): 0.02 µg/mL
MIC (organism code JJ): ≤ 0.005 µg/mL
MIC (organism code KK): 0.01 µg/mL
MIC (organism code LL): 0.01 µg/mL
MIC (organism code MM): 0.78 µg/mL
MIC (organism code NN): 0.1 µg/mL
MIC (organism code OO): 0.02 µg/mL
MIC (organism code PP): 0.1 µg/mL
MIC (organism code QQ): 25 µg/mL
MIC (organism code RR): 0.2 µg/mL
MIC (organism code SS): 100 µg/mL
MIC (organism code TT): > 100 µg/mL
MIC (organism code UU): 0.78 µg/mL
MIC (organism code VV): 0.01 µg/mL
MIC (organism code WW): 2 µg/mL
MIC (organism code XX): ≤ 0.004 µg/mL
MIC (organism code YY): ≤ 0.004 µg/mL
MIC (organism code ZZ): 2 µg/mL
MIC (organism code ZZA): 0.25 µg/mL

CCC1OC(=O)C(C)C(=O)C(C)C(OC2OC(C)CC(N(C)C)C2O)C(C)(OCC=Cc2ccc3ncccc3c2)CC(C)C(=O)C(C)C2NC(=O)OC12C (stereo not shown) [Example 194, R is —CH2CH═CH-(6-quinolyl)]
MIC [1]: > 100 µg/mL
MIC [2]: 0.02 µg/mL (≈ 0.0261 µM)
MIC [3]: 100 µg/mL (≈ 131 µM)
MIC [4]: 50 µg/mL (≈ 65.3 µM)
MIC (Escherichia coli SS (code RR)): 0.39 µg/mL (≈ 0.509 µM)
MIC [5]: 0.1 µg/mL (≈ 0.131 µM)
MIC [6]: 0.01 µg/mL (≈ 0.0131 µM)
MIC [7]: 0.78 µg/mL (≈ 1.02 µM)
MIC [8]: ≤ 0.005 µg/mL
MIC [9]: > 100 µg/mL
MIC [21]: 0.05 µg/mL (≈ 0.0653 µM)
MIC [10]: > 100 µg/mL
MIC [11]: 0.05 µg/mL (≈ 0.0653 µM)
MIC [12]: 0.05 µg/mL (≈ 0.0653 µM)
MIC [13]: 0.05 µg/mL (≈ 0.0653 µM)
MIC [14]: 0.1 µg/mL (≈ 0.131 µM)
MIC [15]: 0.05 µg/mL (≈ 0.0653 µM)
MIC [16]: 0.01 µg/mL (≈ 0.0131 µM)
MIC [17]: ≤ 0.005 µg/mL
MIC [18]: 0.78 µg/mL (≈ 1.02 µM)
MIC [19]: 0.01 µg/mL (≈ 0.0131 µM)
MIC [20]: 0.05 µg/mL (≈ 0.0653 µM)

CCC1OC(=O)C(C)C(=O)C(C)C(OC2OC(C)CC(N(C)C)C2O)C(C)(OCC=Cc2cc(Cl)cc(Cl)c2)CC(C)C(=O)C(C)C2NC(=O)OC12C (stereo not shown) [Example 284, Compound of Formula (IX): L is CO, T is NH2, R is —CH2CH═CH-(3,5-dichlorophenyl)]
MIC (organism code AA): 0.2 µg/mL
MIC (organism code BB): 0.2 µg/mL
MIC (organism code CC): 50 µg/mL
MIC (organism code DD): 0.2 µg/mL
MIC (organism code EE): 0.2 µg/mL
MIC (organism code FF): 0.2 µg/mL
MIC (organism code GG): 50 µg/mL
MIC (organism code HH): 0.2 µg/mL
MIC (organism code II): 0.05 µg/mL
MIC (organism code JJ): 0.02 µg/mL
MIC (organism code KK): 0.02 µg/mL
MIC (organism code LL): ≤ 0.005 µg/mL
MIC (organism code MM): 25 µg/mL
MIC (organism code NN): 0.2 µg/mL
MIC (organism code OO): 0.05 µg/mL
MIC (organism code PP): 0.2 µg/mL
MIC (organism code QQ): > 100 µg/mL
MIC (organism code RR): 1.56 µg/mL
MIC (organism code SS): > 100 µg/mL
MIC (organism code TT): 50 µg/mL
MIC (organism code UU): 0.2 µg/mL
MIC (organism code VV): 0.78 µg/mL
MIC (organism code WW): 4 µg/mL
MIC (organism code XX): 0.03 µg/mL
MIC (organism code YY): 0.03 µg/mL
MIC (organism code ZZ): 32 µg/mL
MIC (organism code ZZA): 0.25 µg/mL

C=CCOC1(C)CC(C)C(=O)C(C)C2N(CC=C)C(=O)OC2(C)C(CC)OC(=O)C(C)C(=O)C(C)C1OC1OC(C)CC(N(C)C)C1O (stereo not shown) [Example 183, Compound of Formula (IX): L is CO, T is N (CH2CH═CH2), R is —CH2CH═CH2]
MIC [1]: > 100 µg/mL
MIC [2]: 3.1 µg/mL
MIC [3]: > 100 µg/mL
MIC [4]: > 100 µg/mL
MIC (Escherichia coli SS (code RR)): 25 µg/mL
MIC (Haemophilis influenzae DILL AMP R (code WW)): > 128 µg/mL
MIC [5]: 25 µg/mL
MIC [6]: 6.2 µg/mL
MIC [7]: > 100 µg/mL
MIC [8]: 1.56 µg/mL
MIC [9]: > 100 µg/mL
MIC [21]: 25 µg/mL
MIC [10]: > 100 µg/mL
MIC [11]: 25 µg/mL
MIC [12]: 25 µg/mL
MIC [13]: 25 µg/mL
MIC [14]: 25 µg/mL
MIC [15]: 25 µg/mL
MIC (Streptococcus Pneumonia 5649 (code ZZA)): 2 µg/mL
MIC (Streptococcus Pneumonia 5979 (code ZZ)): > 128 µg/mL
MIC (Streptococcus Pneumonia ATCC6303 (code XX)): 2 µg/mL
MIC (Streptococcus Pneumonia GYR 1171 (code YY)): 2 µg/mL
MIC [16]: 1.56 µg/mL
MIC [17]: 0.78 µg/mL
MIC [18]: > 100 µg/mL
MIC [19]: 1.56 µg/mL
MIC [20]: 3.1 µg/mL
